Test results as given in PMC6691788, “Design and synthesis of phthalazine-based compounds as potent anticancer agents with potential antiangiogenic activity via VEGFR-2 inhibition” (Journal of Enzyme Inhibition and Medicinal Chemistry, 2019).

Tests used:
Assay in all cases: NCI 60 cell panel SRB screen
MALME-3M = format: cell-based; conditions: Homo sapiens, Malme-3M, read-out: percent cell growth promotion
NCI-H322M = format: cell-based; conditions: Homo sapiens, single dose 10 μM, read-out: percent cell growth promotion
A498 = format: cell-based; conditions: Homo sapiens; A498, single dose 10 μM; read-out: percent cell growth promotion
CAKI-1 = format: cell-based, human; conditions: Homo sapiens; CAKI-1, single dose 10 μM; read-out: percent cell growth promotion
IGROV1 = format: cell-based; conditions: Homo sapiens, IGROV-1; IGROV1, single dose 10 μM; read-out: percent cell growth promotion
SW-620 = format: cell-based; conditions: Homo sapiens; SW-620, single dose 10 μM; read-out: percent cell growth promotion
HT29 = format: cell-based; conditions: Homo sapiens, HT-29; HT29, single dose 10 μM; read-out: percent cell growth promotion
SNB-75 = format: cell-based; conditions: Homo sapiens; SNB-75, single dose 10 μM; read-out: percent cell growth promotion
SK-MEL-28 = format: cell-based; conditions: Homo sapiens, SK-MEL-28, read-out: percent cell growth promotion
SR = format: cell-based; conditions: Homo sapiens, single dose 10 μM, read-out: percent cell growth promotion
DU-145 = format: cell-based; conditions: Homo sapiens; DU-145, single dose 10 μM; read-out: percent cell growth promotion
MOLT-4 = format: cell-based; conditions: Homo sapiens; MOLT-4, single dose 10 μM; read-out: percent cell growth promotion
HL-60(TB) = format: cell-based; conditions: Homo sapiens, single dose 10 μM, read-out: percent cell growth promotion
COLO 205 = format: cell-based; conditions: Homo sapiens; COLO 205, single dose 10 μM; read-out: percent cell growth promotion
M14 = format: cell-based; conditions: Homo sapiens, M14, read-out: percent cell growth promotion
KM12 = format: cell-based; conditions: Homo sapiens; KM12, single dose 10 μM; read-out: percent cell growth promotion
U251 = format: cell-based; conditions: Homo sapiens, U-251; U251, single dose 10 μM; read-out: percent cell growth promotion
HCT-116 = format: cell-based; conditions: Homo sapiens; HCT-116, single dose 10 μM; read-out: percent cell growth promotion
HS 578T = format: cell-based; conditions: Homo sapiens, Hs-578T, read-out: percent cell growth promotion
RXF 393 = format: cell-based; conditions: Homo sapiens; RXF 393, single dose 10 μM; read-out: percent cell growth promotion
786-0 = format: cell-based; conditions: Homo sapiens; 786-0, single dose 10 μM; read-out: percent cell growth promotion
BT-549 = format: cell-based; conditions: Homo sapiens, BT-549, read-out: percent cell growth promotion
TK-10 = format: cell-based, human; conditions: Homo sapiens; TK-10, single dose 10 μM; read-out: percent cell growth promotion
HCT-15 = format: cell-based; conditions: Homo sapiens; HCT-15, single dose 10 μM; read-out: percent cell growth promotion
UACC-62 = format: cell-based; conditions: Homo sapiens, UACC-62, read-out: percent cell growth promotion
OVCAR-5 = format: cell-based; conditions: Homo sapiens; OVCAR-5, single dose 10 μM; read-out: percent cell growth promotion

Compound | activity at 10 µM (MALME-3M) [%] | activity at 10 µM (NCI-H322M) [%] | activity at 10 µM (CAKI-1) [%] | activity at 10 µM (IGROV1) [%] | activity at 10 µM (SW-620) [%] | activity at 10 µM (HT29) [%] | activity at 10 µM (SNB-75) [%] | activity at 10 µM (SK-MEL-28) [%] | activity at 10 µM (SR) [%] | activity at 10 µM (DU-145) [%] | activity at 10 µM (HL-60(TB)) [%] | activity at 10 µM (COLO 205) [%] | activity at 10 µM (M14) [%] | activity at 10 µM (KM12) [%] | activity at 10 µM (U251) [%] | activity at 10 µM (HCT-116) [%] | activity at 10 µM (HS 578T) [%] | activity at 10 µM (RXF 393) [%] | activity at 10 µM (786-0) [%] | activity at 10 µM (TK-10) [%] | further results
O=C(Nc1ccc(Nc2nncc3ccccc23)cc1)c1ccc(Cl)cc1 [Compound 5b, 4-Chloro-N-(4-(phthalazin-1-ylamino)phenyl)benzamide] | 99.6 | 109 | 94.6 | 102 | 102 | 104 | 98.1 | 114 | 95 | 114 | 103 | 104 | 99.7 | 103 | 99.5 | 100 | 105 | 115 | 107 | 116 | activity at 10 µM (A498): 98.7%; activity at 10 µM (MOLT-4): 97.3%; activity at 10 µM (BT-549): 107%; activity at 10 µM (HCT-15): 109%; activity at 10 µM (UACC-62): 89.8%
Cc1nnc(Nc2ccc(NC(=O)c3ccc(Cl)cc3)cc2)c2ccccc12 [Compound 5d, 4-Chloro-N-(4–(4-methylphthalazin-1-ylamino)phenyl)benzamide] | 99 | 112 | 86.3 | 101 | 92.7 | 94.3 | 81.2 | 106 | 86.3 | 102 | 103 | 90.3 | 97.1 | 101 | 81 | 92.2 | 89.7 | 98.7 | 109 | 109 | activity at 10 µM (A498): 88.9%; activity at 10 µM (MOLT-4): 83.5%; activity at 10 µM (OVCAR-5): 98.5%; activity at 10 µM (BT-549): 92.2%; activity at 10 µM (HCT-15): 101%; activity at 10 µM (UACC-62): 95.9%
Cc1nnc(N2CCN(c3ccccc3F)CC2)c2ccccc12 [Compound 8h, 1–(4-(2-Fluorophenyl)piperazin-1-yl)-4-methylphthalazine] | 103 | 121 | 86.8 | 109 | 106 | 90 | 109 | 104 | 95.1 | 107 | 110 | 120 | 95 | 113 | 96.2 | 95.6 | 110 | 99.8 | 90.2 | 88.7 | activity at 10 µM (A498): 65.3%; activity at 10 µM (MOLT-4): 102%; activity at 10 µM (OVCAR-5): 87.9%; activity at 10 µM (HCT-15): 91.8%; activity at 10 µM (UACC-62): 99.2%
Cc1nnc(N2CCN(c3ccccn3)CC2)c2ccccc12 [Compound 8i, 1-Methyl-4–(4-(pyridin-2-yl)piperazin-1-yl)phthalazine] | 107 | 107 | 94.8 | 112 | 113 | 91.2 | 114 | 101 | 92.1 | 111 | 108 | 113 | 98.6 | 110 | 98.6 | 98.1 | 109 | 98.6 | 92.4 | 83.2 | activity at 10 µM (MOLT-4): 96.1%; activity at 10 µM (OVCAR-5): 98.2%; activity at 10 µM (HCT-15): 90.3%; activity at 10 µM (UACC-62): 101%
O=C(Nc1ccc(Cl)cc1)Nc1ccc(Oc2nnc(Cl)c3ccccc23)cc1 [Compound 13b, 1–(4-Chlorophenyl)-3–(4-(4-chlorophthalazin-1-yloxy)phenyl)urea] | 92.3 | 99.1 | 99.1 | 79.2 | 106 | 95.8 | 74 | 106 | 82.8 | 86.8 | 67.3 | 106 | 103 | 84.5 | 86.7 | 97.8 | 97.9 | 99.7 | 114 | 109 | activity at 10 µM (A498): 103%; activity at 10 µM (OVCAR-5): 113%; activity at 10 µM (BT-549): 96.8%; activity at 10 µM (HCT-15): 94.1%; activity at 10 µM (UACC-62): 75.7%
